Where “and” joins values, the source holds several entries; their conditions need not be identical. Identical values can stand only once.
Assays:
P. berghei = details: at concentrations that are effective against P. falciparum; ref Nguyen et al. 2024; cited from earlier work
[1] = test system: signal recognition particle subunit (SRP19, PF3D7_1216300); experiment: Solvent-PISA (solvent proteome profiling, DIA-MS); type: binding, Plasmodium falciparum; details: 100 µM W-991 vs DMSO; 7-25% AEF
Experimental: (§1) The experiment was carried out in three biological replicates. Saponin-liberated mature parasite stages (30-42 hpi) were resuspended in PBS and lysed by 3x flash freeze/thawing using liquid N2, followed by 10 x mechanical sheering with a 29 G needle-syringe, and soluble protein isolation through ultracentrifugation (100,000 g; 20 min, 4 °C). Protein lysate was exposed to the 100 µM of W-991 or the vehicle control (DMSO) for 3 min and subsequently incubated with varying concentration of the solvent mixture ‘AEF’ (50% Acetone, 50% Ethanol, 0.1% Formate) to a final concentration of 7-25% (v/v) with 2% intervals, for 20 min at 37 °C at 800 rpm on a Thermomixer (Eppendorf). Denatured protein was pelleted through centrifugation (4 °C, 18,000 g, 20 min), and the soluble phase was recovered and pulled together in equivolume ratios into two samples; Gradient 1 ‘G1’: 7-15% EAF and Gradient 2 ‘G2’: 17-25% EAF, respectively.
(§2) Sample preparation for proteomic analysis was carried out using modified SP4 glass beads protocol. In brief, protein was reduced (20 mM TCEP, 100 mM TEAB) for 20 min at 55 °C and alkylated with 55 mM 2-Chloroacetamide for 30 min, followed by precipitation on beads in 80% ACN with a 6 min centrifugation at 21,000 g and 3 x wash with 80% Ethanol. Dried beads were subjected to sequential digestion with LysC (3 h, 1:50 ratio w/w) and trypsin (overnight, 1:50 ratio w/w), and the resulting digest was acidified with 1% TFA and desalted on T3 C18 stage tips (Affinisep) according to manufacturer’s specifications.
(§3) Peptide samples were analysed on Orbitrap Eclipse Tribrid mass spectrometer that is interfaced with the Neo Vanquish liquid chromatography system. Samples were loaded onto a C18 fused silica column (inner diameter 75 µm, OD 360 µm × 15 cm length, 1.6 µm C18 beads) packed into an emitter tip (IonOpticks) using pressure-controlled loading with a maximum pressure of 1,500 bar, that is interfaced to the mass spectrometer using Easy nLC source and electro sprayed directly into the mass spectrometer. Sample separation was carried out on a linear gradient 5% to 17% of solvent-B at 400 nL /min flow rate (solvent-B: 80% (by vol) acetonitrile) for 23 min and 17% to 25% solvent-B for 10 min, 25% to 34% for 11 min and 34% to 90% solvent-B for 1 min which was maintained at 90% B for 3 min and washed the column at 2% solvent-B for another 3 min comprising a total of 63 min run with a 45 min gradient in a data independent acquisition (DIA) mode MS scan parameters included a full scan using an orbitrap and 120,000 resolution, standard AGC target and maximum injection time of 30 ms. A second DIA experiment used the orbitrap at […] resolution, a precursor scan range of 200-1200 m/z with a normalized AGC target of 3000% and 45 variable isolation windows. Peptides were isolated and fragmented using stepped […] (HCD) at 24%, 28% and 32% normalized collision energy. Peptide identification was carried out in DIA-NN 1.8.1 using standard settings and an in silico spectral library generated from Uniprot P. falciparum (UP000001450) and human (UP000005640) reference proteomes. The peptide length range was set to 7-30 amino acids. […] Subsequently, the differential abundance analysis (moderated t-test, based on limma package[81]) of P. falciparum proteins was conducted in the R environment (R version 4.2.0; R Studio Version 2023.12.1 + 402) using precursor normalised MaxLFQ data for proteins detected with ≥2 peptides. […]

[2] = test system: merozoites-associated armadillo repeats protein (MAAP, PF3D7_1035900); experiment: Solvent-PISA (solvent proteome profiling, DIA-MS); type: binding, Plasmodium falciparum; details: 100 µM W-991 vs DMSO; 7-25% AEF
Experimental: as §1, §2, §3

[3] = test system: PF3D7_1463500 (START-domain protein); experiment: Solvent-PISA (solvent proteome profiling, DIA-MS); type: binding, Plasmodium falciparum; details: 100 µM W-991 vs DMSO; Fig S4E
Experimental: as §1, §2, §3

[4] = test system: PF3D7_1351000 (START-domain protein); experiment: Solvent-PISA (solvent proteome profiling, DIA-MS); type: binding, Plasmodium falciparum; details: 100 µM W-991 vs DMSO; Fig S4E
Experimental: as §1, §2, §3

[5] = test system: ring-infected erythrocyte surface antigen (RESA3, PF3D7_1149200); experiment: Solvent-PISA (solvent proteome profiling, DIA-MS); type: binding, Plasmodium falciparum; details: 100 µM W-991 vs DMSO; 7-25% AEF
Experimental: as §1, §2, §3

[6] = test system: P. falciparum oocysts in mosquito midguts; experiment: Standard membrane feeding assay: oocysts in mosquito midguts (Walter and Eliza Hall Institute); type: in vivo, Plasmodium falciparum; details: for Oocyst counts from individual mosquitoes: 30 mosquitoes dissected
Experimental: These assays were performed at the Walter and Eliza Hall Institute and at the London School of Hygiene and Tropical Medicine using slightly different approaches which are described in the Supplementary Information. […]
were aspirated into a cup and anesthetized by cooling to 4 °C until immobilized and kept on ice for the dissection. The mosquitoes were then dissected as previously described 12 and collected midguts were maintained in 1X PBS (Gibco) until they were stained with mercurochrome for 20 mins. […]

## CC(C)(Nc1ccc(Cl)c(S(=O)(=O)N2CCOCC2)c1)C(=O)Nc1ccc(F)c(Cl)c1 [W-991]
P. berghei
  effect on P. berghei parasitemia: does not reduce P. berghei parasitemia
[1]
  soluble protein level in the presence of compound (stabilisation): drug-stabilised
[2]
  soluble protein level in the presence of compound (stabilisation): drug-stabilised
[3]
  abundance/stability of the protein on compound treatment: not affected
[4]
  abundance/stability of the protein on compound treatment: not affected
[5]
  soluble protein level in the presence of compound (stabilisation): drug-stabilised
[6]; 100 nM W-991, oocysts counted 7 days after feeding
  reduction of the number of oocysts compared to untreated control: > 20 fold
[6]; W-991 1 nM
  Oocyst counts from individual mosquitoes: 38 and 56 and 49 and 30 and 0 and 4 and 7 and 9 and 6 and 8 and 12 and 35 and 22 and 20 and 13 and 50 and 15 and 10 and 31 and 18 and 11 and 24 and 1
[6]; W-991 50 nM
  Oocyst counts from individual mosquitoes: 9 and 3 and 23 and 27 and 20 and 4 and 12 and 0 and 7 and 10 and 2 and 31 and 22 and 1 and 17
[6]; W-991 100 nM
  Oocyst counts from individual mosquitoes: 6 and 0 and 2 and 16 and 24 and 8 and 11 and 5 and 1 and 7 and 12
[6]; W-991 1, 50, 100 nM, day 7 after feeding
  oocysts per mosquito: dose-dependent decrease in oocysts per mosquito

Reference: paper PMC11189555, “Aryl amino acetamides prevent Plasmodium falciparum ring development via targeting the lipid-transfer protein PfSTART1” (Nature Communications, 2024)
